Reference: US20260374766A1, “METHODS FOR TREATING CANCER” (Antares Therapeutics, Inc., priority 2022, published 2026)
Like-named read-outs stand apart in the source and are kept apart here.

Columns and labels:
[1] = target: T1, p53 Y220C mutant protein (amino acid residues 94-293) (Homo sapiens, UniProt P04637, Y220C); assay: Surface Plasmon Resonance (SPR) assay, Kd_kinetic; assay type: binding; details: SPR, p53 Y220C, read-out: SPR P53 Y220C KD kinetic
T1 construct: p53 Y220C mutant protein (amino acid residues 94-293)
T1 sequence (P04637 94-293, stated change not applied): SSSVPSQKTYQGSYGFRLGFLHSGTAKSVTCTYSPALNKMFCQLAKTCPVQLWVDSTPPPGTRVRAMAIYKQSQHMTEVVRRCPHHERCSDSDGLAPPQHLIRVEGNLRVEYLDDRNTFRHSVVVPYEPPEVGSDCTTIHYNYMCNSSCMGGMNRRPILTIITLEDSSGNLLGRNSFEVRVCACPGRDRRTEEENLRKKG
In short: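 Binding measured by SPR on a Biacore 8K in running buffer of 50 mM Tris pH 7.5, 100 mM NaCl, 1 mM DTT, 0.01% Brij35, 0.05% Tween-20, 1% DMSO.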

p53 Y220C = p53 Y220C (Homo sapiens, UniProt P04637, Y220C); assay: Luciferase Reporter Assay (Luc), p53 response element, NClH1299 cells with inducible p53 Y220C; assay type: cell-based; details: 6 hour; for AC50: read-out: Luc P53 Y220C AC50
In short: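 Luminescence readout (One-Glo, 5 min shaking at RT, read at once) after 6 h compound exposure; cells pre-induced 24 h with 0.5 ug/mL doxycycline, 5,000/well.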

NUGC3 p53 Y220C = assay: Cell Proliferation Assay (CellTiter-Glo, CTG), NUGC3 p53 Y220C; assay type: cell-based; details: Homo sapiens, NUGC-3, 120 h, 5 days
In short: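 NClH1299 lines stably transduced with Tet-inducible p53 Y220C or R273H, plus NUGC3, were treated with compound for 5 days at 250-500 cells/well. IC50 derived from CellTiter-Glo luminescent signal after 10 min room-temperature incubation.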

H1299 p53 Y220C = assay: Cell Proliferation Assay (CellTiter-Glo, CTG), H1299 p53 Y220C (NClH1299-inducible p53 Y220C); assay type: cell-based; details: Homo sapiens, NCI-H1299, 120 h, 5 days
In short: (§1)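 Cells seeded at 250-500 per well and exposed to compound for 5 days. Viability read by CellTiter-Glo luminescence after 10 min at room temperature; IC50 calculated. H1299 lines carry Tet-One inducible p53 mutant constructs introduced by lentiviral transduction.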

H1299 p53 R273H = assay: Cell Proliferation Assay (CellTiter-Glo, CTG), H1299 p53 R273H (NClH1299-inducible p53 R273H); assay type: cell-based; details: Homo sapiens, NCI-H1299, 120 h, 5 days
In short: as §1

[2] = AC50, luciferase reporter, NClH1299 inducible p53 Y220C
[3] = Emax, luciferase reporter, NClH1299 inducible p53 Y220C
[4] = NClH1299-inducible p53 Y220C cells, CellTiter-Glo
[5] = NClH1299-inducible p53 R273H cells, CellTiter-Glo
[6] = luciferase reporter, NClH1299 inducible p53 Y220C, 10 uM tool compound as positive control
[7] = luciferase reporter, NClH1299 inducible p53 Y220C
[8] = AC50, NClH1299 cells with inducible p53 Y220C
[9] = Emax, NClH1299 cells with inducible p53 Y220C, 10 uM tool compound as positive control
[10] = NClH1299-inducible p53 Y220C cells
[11] = NClH1299-inducible p53 R273H cells

| Compound | Kd [1] | AC50 (p53 Y220C; [2]) | Emax (p53 Y220C; [3]) | IC50 (H1299 p53 Y220C; [4]) | IC50 (H1299 p53 R273H; [5]) | Kd ([1]; kinetic KD) | Emax (p53 Y220C; [6]) | AC50 (p53 Y220C; [7]) | IC50 (H1299 p53 Y220C; CellTiter-Glo, H1299 p53 Y220C) | IC50 (H1299 p53 R273H; CellTiter-Glo, H1299 p53 R273H) | AC50 (p53 Y220C; [8]) | Emax (p53 Y220C; [9]) | IC50 (H1299 p53 Y220C; [10]) | IC50 (H1299 p53 R273H; [11]) | IC50 (NUGC3 p53 Y220C; NUGC3 cells, CellTiter-Glo) | IC50 (NUGC3 p53 Y220C; CellTiter-Glo, NUGC3 p53 Y220C) | IC50 (NUGC3 p53 Y220C; NUGC3 cells) |
| --- | --- | --- | --- | --- | --- | --- | --- | --- | --- | --- | --- | --- | --- | --- | --- | --- | --- |
| CNC(=O)c1cnc(OC)c(NCC#Cc2cc3c(N[C@@H]4CNC[C@@H]4F)nccn3c2SC(F)(F)F)c1 [Example 313] | < 10 nM | 750 to 1500 nM | 80 to 90% | 750 to 1500 nM | ≥ 10000 nM | – | – | – | – | – | – | – | – | – | 750 to 1500 nM | – | – |
| CNC(=O)c1ccc(OC)c(NCC#Cc2cc3c(N[C@@H]4CN(C)C[C@@H]4F)nccn3c2SC(F)F)n1 [Example 332] | < 10 nM | 1500 to 3000 nM | 80 to 90% | 1500 to 3000 nM | ≥ 10000 nM | – | – | – | – | – | – | – | – | – | > 3000 nM | – | – |
| COc1cc(C(=O)NCCN(C)C)ccc1NCC#Cc1nc2c(N[C@@H]3CCOC[C@@H]3F)cccn2c1SC(F)(F)F [Example 221] | – | – | – | – | – | < 10 nM | 70 to 80% | < 750 nM | < 750 nM | < 5000 nM | – | – | – | – | – | < 750 nM | – |
| CNC(=O)c1ccc(NCC#Cc2cc3c(N[C@@H]4CN(C)C[C@@H]4F)nccn3c2SC(F)(F)F)c(OC)c1 [Example 325] | < 10 nM | < 750 nM | > 90% | < 750 nM | ≥ 10000 nM | – | – | – | – | – | – | – | – | – | < 750 nM | – | – |
| O=C(NCC1(O)CC1)c1ccc(NCC#Cc2cc3c(N[C@@H]4CCNC[C@@H]4F)cccn3c2SC(F)(F)F)cc1 [Example 367] | < 10 nM | < 750 nM | > 90% | < 750 nM | 8000 to 10000 nM | – | – | – | – | – | – | – | – | – | < 750 nM | – | – |
| CNC(=O)c1cnc(OC)c(NCC#Cc2cc3c(N[C@@H]4CN(C)C[C@@H]4F)nccn3c2SC(F)F)c1 [Example 328] | < 10 nM | < 750 nM | > 90% | < 750 nM | ≥ 10000 nM | – | – | – | – | – | – | – | – | – | < 750 nM | – | – |
| CNC(=O)c1ccc(NCC#Cc2nc3c(N[C@@H]4CCN(C)C[C@@H]4F)cccn3c2SC(F)(F)F)c(Cl)c1 [Example 310] | < 10 nM | < 750 nM | > 90% | < 750 nM | ≥ 10000 nM | – | – | – | – | – | – | – | – | – | < 750 nM | – | – |
| CNS(=O)(=O)c1ccc(OC)c(NCC#Cc2cc3c(N[C@@H]4CCN(C)C[C@@H]4F)cccn3c2SC(F)(F)F)c1 [Example 132, 3-{[3-(8-{[(3S,4R)-3-fluoro-1-methylpiperidin-4-yl]amino}-3-[(trifluoromethyl)sulfanyl]indolizin-2-yl)prop-2-yn-1-yl]amino}-4-methoxy-N-methylbenzenesulfonamide] | – | – | – | – | – | < 10 nM | 80 to 90% | < 750 nM | < 750 nM | 5000 to 8000 nM | – | – | – | – | – | < 750 nM | – |

Continued, in another order:

| Kd [1] | AC50 (p53 Y220C; [2]) | Emax (p53 Y220C; [3]) | IC50 (H1299 p53 Y220C; [4]) | IC50 (H1299 p53 R273H; [5]) | Kd ([1]; kinetic KD) | Emax (p53 Y220C; [6]) | AC50 (p53 Y220C; [7]) | IC50 (H1299 p53 Y220C; CellTiter-Glo, H1299 p53 Y220C) | IC50 (H1299 p53 R273H; CellTiter-Glo, H1299 p53 R273H) | AC50 (p53 Y220C; [8]) | Emax (p53 Y220C; [9]) | IC50 (H1299 p53 Y220C; [10]) | IC50 (H1299 p53 R273H; [11]) | Compound | IC50 (NUGC3 p53 Y220C; NUGC3 cells, CellTiter-Glo) | IC50 (NUGC3 p53 Y220C; CellTiter-Glo, NUGC3 p53 Y220C) | IC50 (NUGC3 p53 Y220C; NUGC3 cells) |
| --- | --- | --- | --- | --- | --- | --- | --- | --- | --- | --- | --- | --- | --- | --- | --- | --- | --- |
| < 10 nM | < 750 nM | 80 to 90% | < 750 nM | 5000 to 8000 nM | – | – | – | – | – | – | – | – | – | CNC(=O)c1ccc(NCC#Cc2cn3c(N[C@@H]4CCNC[C@@H]4F)cccc3c2SC(F)(F)F)c(OC)c1 [Example 434] | < 750 nM | – | – |
| < 10 nM | < 750 nM | > 90% | < 750 nM | ≥ 10000 nM | – | – | – | – | – | – | – | – | – | CN1CC[C@@H](Nc2cccn3c(SC(F)(F)F)c(C#CCNc4ccc(C(=O)NC[C@@H]5COCCO5)cc4)cc23)[C@@H](F)C1 [Example 441] | < 750 nM | – | – |
| < 10 nM | – | – | – | – | – | – | – | – | – | < 750 nM | 80 to 90% | < 750 nM | ≥ 10000 nM | CNC(=O)c1ccc(NCC#Cc2cc3c(N[C@@H]4CCN(C)C[C@@H]4F)cccn3c2SC(F)(F)F)c(Cl)c1 [Example 466, 3-chloro-4-{[3-(8-{[(3S,4R)-3-fluoro-1-methylpiperidin-4-yl]amino}-3-[(trifluoromethyl)sulfanyl]indolizin-2-yl)prop-2-yn-1-yl]amino}-N-methylbenzamide] | – | – | < 750 nM |
| < 10 nM | < 750 nM | > 90% | < 750 nM | ≥ 10000 nM | – | – | – | – | – | – | – | – | – | CN1CC[C@@H](Nc2cccn3c(SC(F)(F)F)c(C#CCNc4ccc(C(=O)NCC5(O)CC5)cc4)cc23)[C@@H](F)C1 [Example 427] | < 750 nM | – | – |
| < 10 nM | – | – | – | – | – | – | – | – | – | < 750 nM | > 90% | < 750 nM | ≥ 10000 nM | COc1ccc(C(=O)N[C@H]2C[C@H](O)C2)cc1NCC#Cc1cc2c(N[C@@H]3CCN(C)C[C@@H]3F)cccn2c1SC(F)(F)F [Example 482] | – | – | < 750 nM |
| < 10 nM | – | – | – | – | – | – | – | – | – | < 750 nM | > 90% | < 750 nM | 5000 to 8000 nM | CNC(=O)c1cnc(C(=O)NC)c(NCC#Cc2cc3c(N[C@@H]4CCN(C)C[C@@H]4F)cccn3c2SC(F)(F)F)c1 [Example 496] | – | – | < 750 nM |
| < 10 nM | – | – | – | – | – | – | – | – | – | < 750 nM | > 90% | < 750 nM | 5000 to 8000 nM | CNC(=O)c1ccc(NCC#Cc2cc3c(N[C@@H]4CCN(C)C[C@@H]4F)cccn3c2SC(F)(F)F)c(O)c1 [Example 469, 4-{[3-(8-{[(3S,4R)-3-fluoro-1-methylpiperidin-4-yl]amino}-3-[(trifluoromethyl)sulfanyl]indolizin-2-yl)prop-2-yn-1-yl]amino}-3-hydroxy-N-methylbenzamide] | – | – | < 750 nM |
| < 10 nM | < 750 nM | > 90% | < 750 nM | 8000 to 10000 nM | – | – | – | – | – | – | – | – | – | CNC(=O)c1ccc(OC)c(NCC#Cc2cn3c(N[C@@H]4CCNC[C@@H]4F)cccc3c2SC(F)(F)F)c1 [Example 381] | < 750 nM | – | – |
| < 10 nM | < 750 nM | > 90% | < 750 nM | ≥ 10000 nM | – | – | – | – | – | – | – | – | – | CN1CC[C@@H](Nc2cccn3c(SC(F)(F)F)c(C#CCNc4ccc(P(C)(C)=O)c5ocnc45)cc23)[C@@H](F)C1 [Example 437, 7-(dimethylphosphoryl)-N-[3-(8-{[(3S,4R)-3-fluoro-1-methylpiperidin-4-yl]amino}-3-[(trifluoromethyl)sulfanyl]indolizin-2-yl)prop-2-yn-1-yl]-1,3-benzoxazol-4-amine] | < 750 nM | – | – |
| < 10 nM | < 750 nM | > 90% | < 750 nM | 5000 to 8000 nM | – | – | – | – | – | – | – | – | – | CN1CC[C@@H](Nc2cccn3c(SC(F)(F)F)c(C#CCNc4ccc(C(=O)NC[C@H]5COCCO5)cc4)cc23)[C@@H](F)C1 [Example 407] | < 750 nM | – | – |
| < 10 nM | < 750 nM | > 90% | < 750 nM | 5000 to 8000 nM | – | – | – | – | – | – | – | – | – | CN1CC[C@@H](Nc2cccn3c(SC(F)(F)F)c(C#CCNc4ccc(C(=O)N5CC(C)(O)C5)cc4)cc23)[C@@H](F)C1 [Example 395] | < 750 nM | – | – |
